One assay has as its target Human recombinant PARP2 (Homo sapiens, UniProt Q9UGN5). Briefly: RBC HotSpot PARP2 assay (radioisotope-based filter binding). The class given is biochemical. On the procedure: The following methods are for evaluating the in vitro biology properties of the test articles. • a. RBC HotSpot Poly(ADP-ribose) Polymerases 1 (PARP1) and Poly(ADP-ribose) Polymerases 2 (PARP2) Assays: The assay was conducted at Reaction Biology Corporation (RBC; Malvern, PA). The assay principle is radioisotope-based filter binding assay where incorporation of radioisotope-labeled NAD^+ into the substrate captured on filter is detected after washout free NAD^+. Data were analyzed using Excel and GraphPad Prism software for IC50 curve fits. Each assay was conducted with PJ34 as a positive control. PARP1 assay: Human recombinant PARP1 at a final concentration of 2.5 nM was combined with histone H4 (20 μM) and test articles at various concentrations in reaction buffer (50 mM Tris-HCL, pH 8.0, 50 mM NaCl, 10 mM MgCl2, 1 mM DTT, 1% DMSO, and 20 μg/mL activated DNA). The solution was inoculated for 20 min at room temperature and the reaction initiated by adding [adenylate-^32P]-Nicotinamide Adenine Dinucleotide, ^32P-NAD^+ at a final concentration of 10 μM. After incubation for 2 hrs at room temperature, the reaction mixture was filtered and washed with 0.75% phosphoric acid for radioactivity detection. • ii. PARP2 assay: Human recombinant PARP2 at a final concentration of 2.5 nM was combined with histone H3 (20 μM) and test articles at various concentrations in reaction buffer (50 mM Tris-HCL, pH 8.0, 50 mM NaCl, 10 mM MgCl2, 1 mM DTT, 1% DMSO, and 20 μg/mL activated DNA). The solution was inoculated for 20 min at room temperature and the reaction was initiated by adding [adenylate-^32P]-Nicotinamide Adenine Dinucleotide, ^32P-NAD^+ at a final concentration of 10 μM. After incubation for 2 hrs at room temperature, the reaction mixture was filtered and washed with 0.75% phosphoric acid for radioactivity detection. • b. AR binding assay: AR in LNCaP cytosol was used for determining the binding affinity of test articles and the reference compound—progesterone (Sigma, Cat: E2785, St. Louis, MO). IC50 s were determined using 8 concentrations/compound. Cytosol is plated at 200 μg/well (100 μL) into a 96-well conical polypropylene plate (Agilent, Cat: 5042-1385, Santa Clara, CA) and mixed with 3 μL of test compound. After adding 100 μL of ^3H-methyltrienolone (PerkinElmer, Cat: NET590250UC, San Jose, CA), the plate was sealed and shaken at 300 rpm at 4° C. for 24 hours. Post incubation, 100 μL of radioligand adsorption buffer containing 10 mM Tris-HCl, pH 7.4; 1.5 mM EDTA; 1 mM DTT; 0.25% charcoal; 0.0025% dextran was added to individual wells. Plate was shaken for 15 min at 4° C. followed by centrifugation at 3000 rpm for 30 min at 4° C. 150 μL of supernatant is transferred into scint-tube (PerkinElmer, Cat: 6000192) and mixed with 2 mL of Ultima Gold Cocktail (PerkinElmer, Cat: 6013329). Radioactivity is counted using a TriCarb 2910 TR scintillation counter (PerkinElmer). Inhibition of the radioactivity by test articles was calculated using the equation below: % Inhibition=(1−(Assay well−Average_LC)/(Average_HC−Average_LC))×100%. • IC50 values (Table 6) were calculated and graphed using the model “log(inhibitor) vs. response—Variable slope” included in GraphPad Prism 5 (San Diego, CA). The Ki values were further calculated using the equation below where [L] is the radioligand concentration (1 nM) used in this study. Kd value was 0.332 nM. Ki=IC50/(1+[L]/Kd) • c. AR transactivation: Human AR cloned into a CMV vector backbone is used for the transactivation study. HEK-293 cells are plated at 80,000 cells per well of a 24 well plate in DME+5% csFBS. Twenty four hours later, the cells are transfected using Lipofectamine (Invitrogen, Carlsbad, CA) with 0.25 μg GRE-LUC, 0.01 μg CMV-LUC (renilla luciferase) and 25 ng of the AR in OPTIMEM medium. The cells are treated 24 hrs after transfection with various ligands (10^−12 to 10^−5 M final concentrations) and luciferase assay performed 48 hours after transfection. […]

The next assay concerns 22Rv1 cells. The assay can be described thus: Cell viability assay (CellTiterGlo, 6 days) 22Rv1. It counts as cell-based. The following applies: Homo sapiens, 22Rv1, 144 h; Table 7; cell viability, 6 days; read-out: 22RV1. As to the method: Cell viability assay: LNCap, 22Rv1, and T47D cells were seeded at a density of 1500-2000 cells/well in 96 well plates, and a ‘T0’ (timepoint 0) was included along with the assay plate. The plates were then incubated at 37° C., 5% CO2 in a cell culture incubator overnight. On the next day, the ‘T0’ plate was assayed using CellTiterGlo (Promega, Inc) according to the manufacturer's instructions. The appropriate compounds were diluted in DMSO and added to the assay plate (final DMSO concentration of 0.2%) on the next day. The assay plates were incubated for 6 days at 37° C., 5% CO2. After the incubation period, the plates were assayed using CellTiterGlo (Promega, Inc) according to the manufacturer's instructions and luminescence was read on the EnVision plate reader. Inhibition the tested compounds was determined by the following formula: Inhibition rate (%)=(1−(RLU compound−RLU day0)/(RLU control−RLU day0))*100%. GraphPadPrism was used to analyze the data and determine absolute IC50 values.
Background: Cellular ATP, detected with luciferase, serves as a proxy for viable cell number.

Assay [1] concerns the target T1, Progesterone Receptor (PR)-LBD (Homo sapiens, UniProt P06401).
T1 sequence (P06401 679-913 limits assumed): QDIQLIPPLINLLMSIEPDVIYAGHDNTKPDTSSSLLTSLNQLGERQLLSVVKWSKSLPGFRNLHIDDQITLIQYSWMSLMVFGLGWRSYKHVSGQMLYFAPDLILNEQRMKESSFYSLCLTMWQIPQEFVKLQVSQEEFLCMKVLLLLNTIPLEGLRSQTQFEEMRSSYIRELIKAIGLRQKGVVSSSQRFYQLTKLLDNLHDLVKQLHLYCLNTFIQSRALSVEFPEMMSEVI
The assay can be described thus: PR coactivator antagonist assay. It counts as biochemical. The conditions noted are these: Table 8; 10 nM progesterone; read-out: PR antagonism. On the procedure:
PR coactivator antagonist assay: Test compound (Top dose 10 μM, 4 fold serial dilution, 8 point dose response) and/or vehicle was incubated with the 2.5 nM Progesterone Receptor (PR)-LBD and coactivator peptide for 30 minutes at RT. Determination of the amount of complex formed is read spectrofluorimetrically (excitation: 337 nm, emission: 520/490 nm). Test compound-induced inhibition of 10 nM progesterone-induced fluorescence response by 50 percent or more (>50%) indicates receptor antagonist activity.

The structures appear in SMILES notation. Where two headings read alike, the source gives them in different places.

Sequence of Human recombinant PARP2 (Q9UGN5 whole entry): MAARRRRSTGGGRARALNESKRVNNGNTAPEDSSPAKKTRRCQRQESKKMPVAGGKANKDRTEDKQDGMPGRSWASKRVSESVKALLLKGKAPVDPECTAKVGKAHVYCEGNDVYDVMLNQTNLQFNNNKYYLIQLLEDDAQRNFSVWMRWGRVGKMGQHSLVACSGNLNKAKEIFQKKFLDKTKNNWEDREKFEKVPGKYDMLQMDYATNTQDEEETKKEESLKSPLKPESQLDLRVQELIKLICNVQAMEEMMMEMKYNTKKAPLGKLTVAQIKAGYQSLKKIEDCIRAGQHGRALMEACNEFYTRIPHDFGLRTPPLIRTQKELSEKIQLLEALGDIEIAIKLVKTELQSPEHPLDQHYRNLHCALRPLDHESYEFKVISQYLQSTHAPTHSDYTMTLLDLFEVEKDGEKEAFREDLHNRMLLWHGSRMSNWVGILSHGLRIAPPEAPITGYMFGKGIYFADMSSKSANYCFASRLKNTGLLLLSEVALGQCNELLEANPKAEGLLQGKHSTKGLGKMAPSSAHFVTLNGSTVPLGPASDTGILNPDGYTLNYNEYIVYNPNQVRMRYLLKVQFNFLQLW

In the case of `C[C@@]12CCC(=O)C[C@H]1CC[C@H]1[C@H]2CC[C@]2(C)[C@@H]1CC[C@H]2OCCCCCCNC(=O)c1cc(Cc2n[nH]c(=O)c3ccccc23)ccc1F` (stereo in doubt) [Compound 1426, N-(6-((5R,8S,9R,10R,13R,14R,17R)-10,13-dimethyl-3-oxohexadecahydro-1H-cyclopenta[a]phenanthren-17-yloxy)hexyl)-2-fluoro-5-((4-oxo-3,4-dihydrophthalazin-1-yl)methyl)benzamide], the IC50 fell in the range of 1 to 10 nM at Human recombinant PARP2 (Table 9, read-out: PARP2) and 1000 to 10000 nM with 22Rv1 cells.
In the case of `CC#C[C@]1(O)CC[C@H]2[C@@H]3CCC4=CC(=O)CCC4=C3[C@@H](c3ccc(N(C)CCCCCC(=O)N4CCN(C(=O)c5cc(Cc6n[nH]c(=O)c7ccccc67)ccc5F)CC4)cc3)C[C@@]21C` [Compound 135, 4-(4-fluoro-3-(4-(6-((4-((8S,11R,13S,14S,17S)-17-hydroxy-13-methyl-3-oxo-17-(prop-1-ynyl)-2,3,6,7,8,11,12,13,14,15,16,17-dodecahydro-1H-cyclopenta[a]phenanthren-11-yl)phenyl)(methyl)amino)hexanoyl)piperazine-1-carbonyl)benzyl)phthalazin-1(2H)-one], the IC50 at Human recombinant PARP2 (Table 9, read-out: PARP2) was below 1 nM; in assay [1], below 10 nM.
For `C[C@]12C[C@H](CCCCCC(=O)N3CCN(C(=O)c4cc(Cc5n[nH]c(=O)c6ccccc56)ccc4F)CC3)C3=C4CCC(=O)C=C4CC[C@H]3[C@@H]1CCC2O` (stereo partly drawn) [Compound 138, 4-(4-fluoro-3-(4-(6-((8S,11S,13S,14S)-17-hydroxy-13-methyl-3-oxo-2,3,6,7,8,11,12,13,14,15,16,17-dodecahydro-1H-cyclopenta[a]phenanthren-11-yl)hexanoyl)piperazine-1-carbonyl)benzyl)phthalazin-1(2H)-one], the IC50 on Human recombinant PARP2 (Table 9, read-out: PARP2) is below 1 nM; in the assay on 22Rv1 cells it was 100 to 1000 nM.
Regarding `Cn1ncnc1C1c2n[nH]c(=O)c3cc(F)cc(c23)N[C@@H]1c1ccc(NC(=O)CCCCCO[C@@H]2CC[C@H]3[C@@H]4CC[C@H]5CCCC[C@]5(C)[C@H]4CC[C@]23C)cc1` (stereo partly drawn) [Compound 1128, 6-((5R,8R,9S,10S,13S,14S,17R)-10,13-dimethylhexadecahydro-1H-cyclopenta[a]phenanthren-17-yloxy)-N-(4-((8S)-5-fluoro-9-(1-methyl-1H-1,2,4-triazol-5-yl)-3-oxo-3,7,8,9-tetrahydro-2H-pyrido[4,3,2-de]phthalazin-8-yl)phenyl)hexanamide], the IC50 on Human recombinant PARP2 (Table 5, in vitro results, read-out: PARP2 IC50) is 14 nM; in the assay with 22Rv1 cells, 1000 to 10000 nM.
On to `CC(=O)O[C@]1(C(C)=O)CC[C@H]2[C@@H]3CCC4=CC(=O)CCC4=C3[C@@H](c3ccc(N(C)CCCCCC(=O)N4CCN(C(=O)c5cc(Cc6n[nH]c(=O)c7ccccc67)ccc5F)CC4)cc3)C[C@@]21C` [Compound 1378, (8S,11R,13S,14S,17R)-17-acetyl-11-(4-((6-(4-(2-fluoro-5-((4-oxo-3,4-dihydrophthalazin-1-yl)methyl)benzoyl)piperazin-1-yl)-6-oxohexyl)(methyl)amino)phenyl)-13-methyl-3-oxo-2,3,6,7,8,11,12,13,14,15,16,17-dodecahydro-1H-cyclopenta[a]phenanthren-17-yl acetate], for which the IC50 at Human recombinant PARP2 (Table 9, read-out: PARP2) is below 1 nM; in assay [1] it was below 10 nM.
The matching figures for `CC(=O)O[C@]1(C(C)=O)CC[C@H]2[C@@H]3CCC4=CC(=O)CCC4=C3[C@@H](c3ccc(N(C)CCCCCC(=O)NCCOCCOCC(=O)N4CCN(C(=O)c5cc(Cc6n[nH]c(=O)c7ccccc67)ccc5F)CC4)cc3)C[C@@]21C` [Compound 1384, (8S,11R,13S,14S,17R)-17-acetyl-11-(4-((6-(2-(2-(2-(4-(2-fluoro-5-((4-oxo-3,4-dihydrophthalazin-1-yl)methyl)benzoyl)piperazin-1-yl)-2-oxoethoxy)ethoxy)ethylamino)-6-oxohexyl)(methyl)amino)phenyl)-13-methyl-3-oxo-2,3,6,7,8,11,12,13,14,15,16,17-dodecahydro-1H-cyclopenta[a]phenanthren-17-yl acetate]: below 1 nM and below 10 nM.
For the compound `C[C@]12CC[C@H]3[C@@H](CCC4=CC(=O)CC[C@@]43C)[C@@H]1CC[C@@H]2C(=O)COCCCCCC(=O)N1CCN(C(=O)c2cc(Cc3n[nH]c(=O)c4ccccc34)ccc2F)CC1` [Compound 1386, 4-(3-(4-(6-(2-((8S,9S,10R,13S,14S,17S)-10,13-dimethyl-3-oxo-2,3,6,7,8,9,10,11,12,13,14,15,16,17-tetradecahydro-1H-cyclopenta[a]phenanthren-17-yl)-2-oxoethoxy)hexanoyl)piperazine-1-carbonyl)-4-fluorobenzyl)phthalazin-1(2H)-one], the IC50 on Human recombinant PARP2 (Table 9, read-out: PARP2) was below 1 nM; in assay [1], above 10000 nM.
Take `C[C@]12Cc3cn[nH]c3C[C@@H]1CC[C@@H]1[C@@H]2CC[C@]2(C)[C@@H](OCCCCCC(=O)N3CCN(C(=O)c4cc(Cc5n[nH]c(=O)c6ccccc56)ccc4F)CC3)CC[C@@H]12` [Compound 1394, 4-(3-(4-(6-(((1S,3aS,3bR,5aS,10aS,10bS,12aS)-10a,12a-dimethyl-1,2,3,3a,3b,4,5,5a,6,7,10,10a,10b,11,12,12a-hexadecahydrocyclopenta[5,6]naphtho[1,2-f]indazol-1-yl)oxy)hexanoyl)piperazine-1-carbonyl)-4-fluorobenzyl)phthalazin-1(2H)-one]: the IC50 on Human recombinant PARP2 (Table 9, read-out: PARP2) lay within 1 to 10 nM; with 22Rv1 cells, 100 to 1000 nM.

Source of the values: patent US11952349B2, “Anti-cancer nuclear hormone receptor-targeting compounds” (Nuvation Bio Inc., priority 2019, dated 2024).
